Measured values as given in BindingDB's records for doi:10.1021/jm981008a (1998).

Experiments:
[1] = target: T1, Sodium-dependent dopamine transporter (Homo sapiens, UniProt Q01959); assay: The compound was tested in vitro for low binding affinity for the Dopamine transporter (DAT) using competitive binding assay.
[2] = target: T1, Sodium-dependent dopamine transporter; assay: The compound was tested in vitro for high binding affinity for the Dopamine transporter (DAT) using competitive binding assay.
[3] = target: Sodium-dependent noradrenaline transporter (Homo sapiens, UniProt P23975); assay: The compound was tested in vitro for binding affinity for the norepinephrine transporter (NET) using competitive binding assay.
Sequence of Sodium-dependent noradrenaline transporter (P23975 whole entry): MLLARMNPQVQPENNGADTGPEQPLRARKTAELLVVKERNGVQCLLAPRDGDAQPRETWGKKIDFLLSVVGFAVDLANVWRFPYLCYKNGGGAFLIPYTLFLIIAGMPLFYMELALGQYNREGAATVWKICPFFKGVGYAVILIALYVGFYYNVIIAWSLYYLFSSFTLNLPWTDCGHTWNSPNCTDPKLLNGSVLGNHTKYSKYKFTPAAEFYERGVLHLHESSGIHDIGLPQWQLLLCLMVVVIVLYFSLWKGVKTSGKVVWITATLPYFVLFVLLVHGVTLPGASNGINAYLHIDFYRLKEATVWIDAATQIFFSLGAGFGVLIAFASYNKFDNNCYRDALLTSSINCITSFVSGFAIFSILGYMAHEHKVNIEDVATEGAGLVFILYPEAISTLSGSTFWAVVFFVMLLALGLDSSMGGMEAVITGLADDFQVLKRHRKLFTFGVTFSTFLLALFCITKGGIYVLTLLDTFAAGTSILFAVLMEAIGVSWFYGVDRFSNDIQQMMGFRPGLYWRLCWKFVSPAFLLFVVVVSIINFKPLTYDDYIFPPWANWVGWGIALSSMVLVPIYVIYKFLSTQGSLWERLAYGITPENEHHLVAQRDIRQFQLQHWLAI

[4] = target: Sodium-dependent serotonin transporter (Homo sapiens, UniProt P31645); assay: The compound was tested in vitro for binding affinity for the serotonin transporter (5-HTT) using competitive binding assay.
Sequence of Sodium-dependent serotonin transporter (P31645 whole entry): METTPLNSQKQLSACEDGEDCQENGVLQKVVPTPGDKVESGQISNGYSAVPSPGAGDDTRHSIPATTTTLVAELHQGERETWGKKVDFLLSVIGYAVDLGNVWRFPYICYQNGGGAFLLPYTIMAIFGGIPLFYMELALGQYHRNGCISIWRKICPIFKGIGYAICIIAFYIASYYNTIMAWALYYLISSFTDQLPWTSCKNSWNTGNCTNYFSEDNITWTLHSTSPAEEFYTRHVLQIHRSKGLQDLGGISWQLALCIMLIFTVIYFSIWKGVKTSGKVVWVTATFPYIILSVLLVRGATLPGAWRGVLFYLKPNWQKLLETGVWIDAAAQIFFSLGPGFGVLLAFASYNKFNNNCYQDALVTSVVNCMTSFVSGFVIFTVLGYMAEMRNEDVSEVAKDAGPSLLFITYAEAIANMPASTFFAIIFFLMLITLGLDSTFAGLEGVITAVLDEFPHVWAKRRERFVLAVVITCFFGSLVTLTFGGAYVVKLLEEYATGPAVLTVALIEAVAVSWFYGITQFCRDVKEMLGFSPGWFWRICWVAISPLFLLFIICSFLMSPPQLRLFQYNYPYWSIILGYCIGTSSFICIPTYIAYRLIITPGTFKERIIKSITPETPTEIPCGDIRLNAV

T1 sequence (Q01959 whole entry): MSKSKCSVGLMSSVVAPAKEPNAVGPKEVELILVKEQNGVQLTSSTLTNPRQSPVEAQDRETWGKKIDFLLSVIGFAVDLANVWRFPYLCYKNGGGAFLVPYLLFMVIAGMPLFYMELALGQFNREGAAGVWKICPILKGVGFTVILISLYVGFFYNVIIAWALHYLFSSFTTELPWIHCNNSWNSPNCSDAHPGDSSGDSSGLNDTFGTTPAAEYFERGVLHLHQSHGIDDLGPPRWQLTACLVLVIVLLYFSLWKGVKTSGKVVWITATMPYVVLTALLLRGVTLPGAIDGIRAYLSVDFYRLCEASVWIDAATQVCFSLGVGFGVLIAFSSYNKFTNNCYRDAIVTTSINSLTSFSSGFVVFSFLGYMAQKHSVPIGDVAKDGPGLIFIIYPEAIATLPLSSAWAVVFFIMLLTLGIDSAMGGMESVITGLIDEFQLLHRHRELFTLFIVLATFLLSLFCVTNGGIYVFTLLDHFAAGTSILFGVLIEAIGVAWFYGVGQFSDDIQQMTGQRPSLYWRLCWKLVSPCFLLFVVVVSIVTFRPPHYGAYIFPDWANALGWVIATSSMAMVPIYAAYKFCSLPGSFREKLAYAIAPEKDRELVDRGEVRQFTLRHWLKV

Compound: CN1C2CCC1[C@@H](COC(=O)CC[S+]1CC[S+](C)[Re]1([Br])([CH]=O)([CH]=O)[CH]=O)[C@@H](c1ccc(F)cc1)C2 (some centres undefined) [Rhenium complex of 3-(2-Bromo-2,2,2-triformyl-3-methyl-1lambda*4*,2lambda*6*,3lambda*4*-[1,2,3]dithiolan-1-yl)-propionic acid 3-(4-fluoro-phenyl)-8-methyl-8-aza-bicyclo[3.2.1]oct-2-ylmethyl ester]
- IC50 [1]: 20 nM
- IC50 [2]: 0.146 nM
- IC50 [3]: 7.3 nM
- IC50 [4]: 72 nM
